In ChEMBL document CHEMBL5705884, “Breaching the DNA damage checkpoint via PF-00477736, a novel small-molecule inhibitor of checkpoint kinase 1” (Mol Cancer Ther, 2008):
The source made the active and inactive calls. The rule behind the calls is not given here.

What was measured:
[1] = target: Fibroblast growth factor receptor 3 (Homo sapiens, UniProt P22607); experiment: Inhibition of FGFR3 (unknown origin)
[2] = target: Proto-oncogene tyrosine-protein kinase receptor Ret (Homo sapiens, UniProt P07949); experiment: Inhibition of Ret (unknown origin)
[3] = AUC (0 to infinity) in nu/nu mouse at 20 mg/kg, ip by LCMS analysis; type: ADME, organism-based; conditions: in vivo
[4] = AUC (0 to infinity) in Sprague-Dawley rat at 4 mg/kg, iv administered as bolus dose by LCMS analysis; type: ADME, organism-based; conditions: in vivo
[5] = Terminal half life in Sprague-Dawley rat at 4 mg/kg, iv administered as bolus dose by LCMS analysis; type: ADME, organism-based; conditions: in vivo, read-out: beta t1/2 (converted)
[6] = system: CA46; experiment: Inhibition of camptothecin induced DNA damage in mutated human CA46 cells assessed as increase in mitotic index by measuring histone H3 phosphorylation at S10 residue at 0.001 to 1 uM measured after 16 hrs presence of nocodazole by dot blot assay; type: functional, cell-based; conditions: CA46, 16 h
[7] = system: HT-29; experiment: Inhibition of gemcitabine induced cell cycle arrest in human HT-29 cells assessed as increase in G0-G1 cell population pretreated with gemcitabine followed by compound treatment and measured after 10 to 48 hrs by flow cytometry analysis; type: functional, cell-based; conditions: time 10-48 hrs
[8] = system: HT-29; experiment: Induction of apoptosis in gemcitabine induced human HT-29 cells assessed as apoptotic cell death measured after 48 hrs by PI staining based flow cytometry analysis (reference value: 8.6%); type: functional
[9] = system: HT-29; experiment: Cytotoxicity in human HT-29 cells assessed as cell survival at 180 nM measured after 4 to 48 hrs by coulter counter method relative to control; type: functional; conditions: time 4-48 hrs, read-out: Activity
[10] = system: HT-29; experiment: Potentiation of gemcitabine induced cytotoxicity in human HT-29 cells assessed as cell survival at 360 nM measured after 4 to 48 hrs by coulter counter method relative to gemcitabine alone; type: functional; conditions: time 4-48 hrs, read-out: Activity
[11] = system: HT-29; experiment: Potentiation of camptothecin induced cytotoxicity in human HT-29 cells assessed as cell survival at 180 nM measured after 4 to 48 hrs by coulter counter method relative to camptothecin alone; type: functional; conditions: time 4-48 hrs, read-out: Activity
[12] = system: K562; experiment: Antiproliferative activity against human K562 cells deficit of p53 expression assessed as inhibition of cell growth measured after 96 hrs by MTT assay; type: functional, cell-based; conditions: K562, 96 h
[13] = system: HT-29; experiment: Potentiation factor, ratio of IC50 for human HT-29 cells to IC50 for human HT-29 cells in presence of SN-38; type: functional
[14] = system: HT-29; experiment: Potentiation factor, ratio of IC50 for human HT-29 cells to IC50 for human HT-29 cells in presence of carboplatin; type: functional
[15] = system: COLO 205; experiment: Potentiation factor, ratio of IC50 for human COLO 205 cells to IC50 for human COLO 205 cells in presence of gemcitabine; type: functional
[16] = system: PC-3; experiment: Potentiation factor, ratio of IC50 for human PC-3 cells to IC50 for human PC-3 cells in presence of SN-38; type: functional
[17] = system: PC-3; experiment: Potentiation factor, ratio of IC50 for human PC-3 cells to IC50 for human PC-3 cells in presence of carboplatin; type: functional
[18] = system: PC-3; experiment: Potentiation factor, ratio of IC50 for human PC-3 cells to IC50 for human PC-3 cells in presence of doxorubicin; type: functional
[19] = system: MDA-MB-231; experiment: Potentiation factor, ratio of IC50 for human MDA-MB-231 cells to IC50 for human MDA-MB-231 cells in presence of mytomicin-C; type: functional
[20] = system: K562; experiment: Potentiation factor, ratio of IC50 for human K562 cells to IC50 for human K562 cells in presence of gemcitabine; type: functional
[21] = system: K562; experiment: Potentiation factor, ratio of IC50 for human K562 cells to IC50 for human K562 cells in presence of carboplatin; type: functional
[22] = system: HT-29; experiment: Induction of DNA damage in gemcitabine induced human HT-29 cells assessed as increase in intensity of H2AX phosphorylation at 360 nM measured after 24 hrs by immunoblot analysis; type: functional, cell-based
[23] = system: COLO 205; experiment: Antitumor activity against human COLO 205 cells xenografted in athymic nude mouse model assessed as tumor growth inhibition at 30 mg/kg, ip administered once daily in presence of gemcitabine (Gemcitabine alone = 40%); type: functional; conditions: read-out: TGI
[24] = system: COLO 205; experiment: Antitumor activity against human COLO 205 cells xenografted in athymic nude mouse model assessed as tumor growth inhibition at 40 mg/kg, ip administered twice daily in presence of gemcitabine (Gemcitabine alone= 58%); type: functional; conditions: read-out: TGI
[25] = system: COLO 205; experiment: Antitumor activity against human COLO 205 cells xenografted in athymic nude mouse model assessed as tumor growth inhibition at 20 mg/kg, ip administered once daily in presence of gemcitabine (Gemcitabine alone= 58%); type: functional; conditions: read-out: TGI
[26] = system: COLO 205; experiment: Antitumor activity against human COLO 205 cells xenografted in athymic nude mouse model assessed as tumor growth inhibition at 12 mg/kg, ip administered once daily in presence of gemcitabine (Gemcitabine alone= 58%); type: functional; conditions: read-out: TGI
[27] = system: COLO 205; experiment: Antitumor activity against human COLO 205 cells xenografted in athymic nude mouse model assessed as tumor growth inhibition at 4 mg/kg, ip administered once daily in presence of gemcitabine (Gemcitabine alone= 58%); type: functional; conditions: read-out: TGI
[28] = system: COLO 205; experiment: Antitumor activity against human COLO 205 cells xenografted in athymic nude mouse model assessed as potentiated tumor growth inhibition at 24 mg/kg, ip administered twice daily in presence of gemcitabine relative to control; type: functional; conditions: read-out: TGI
[29] = system: COLO 205; experiment: Antitumor activity against human COLO 205 cells xenografted in athymic nude mouse model assessed as potentiated tumor growth inhibition at 30 mg/kg, ip administered once daily in presence of gemcitabine relative to control; type: functional; conditions: read-out: TGI
[30] = system: COLO 205; experiment: Antitumor activity against human COLO 205 cells xenografted in athymic nude mouse model assessed as potentiated tumor growth inhibition at 30 mg/kg, ip administered twice daily in presence of gemcitabine relative to control; type: functional; conditions: read-out: TGI
[31] = system: COLO 205; experiment: Antitumor activity against human COLO 205 cells xenografted in athymic nude mouse model assessed as tumor growth delay by measuring test to control tumor ratio at 4 mg/kg, ip administered twice daily in presence of gemcitabine (Gemcitabine alone= 8%); type: functional
[32] = system: COLO 205; experiment: Antitumor activity against human COLO 205 cells xenografted in athymic nude mouse model assessed as tumor growth delay by measuring test to control tumor ratio at 12 mg/kg, ip administered once daily in presence of gemcitabine (Gemcitabine alone= 8%); type: functional
[33] = system: COLO 205; experiment: Antitumor activity against human COLO 205 cells xenografted in athymic nude mouse model assessed as gross log cell kill at 20 mg/kg, ip administered once daily in presence of gemcitabine (Gemcitabine alone = 0.5%); type: functional
[34] = system: COLO 205; experiment: Antitumor activity against human COLO 205 cells xenografted in athymic nude mouse model assessed as gross log cell kill at 24 mg/kg, ip administered twice daily in presence of gemcitabine (Gemcitabine alone = 0.5%); type: functional
[35] = Toxicity in athymic nude mouse assessed as effect on body weight at 4 to 20 mg/kg, ip administered twice daily in presence of gemcitabine; type: organism-based; conditions: in vivo, dose 4-20 mg/kg
[36] = system: COLO 205; experiment: In vivo inhibition of Chk1 in athymic nude mouse xenografted with gemcitabine treated human COLO 205 cells assessed as increase in histone H3 phosphorylation level at Ser10 residues at 7.5 to 15 mg/kg by immunohistochemical analysis; type: functional, organism-based; conditions: dose 7.5-15 mg/kg

Proto-oncogene tyrosine-protein kinase receptor Ret, sequence (P07949 whole entry): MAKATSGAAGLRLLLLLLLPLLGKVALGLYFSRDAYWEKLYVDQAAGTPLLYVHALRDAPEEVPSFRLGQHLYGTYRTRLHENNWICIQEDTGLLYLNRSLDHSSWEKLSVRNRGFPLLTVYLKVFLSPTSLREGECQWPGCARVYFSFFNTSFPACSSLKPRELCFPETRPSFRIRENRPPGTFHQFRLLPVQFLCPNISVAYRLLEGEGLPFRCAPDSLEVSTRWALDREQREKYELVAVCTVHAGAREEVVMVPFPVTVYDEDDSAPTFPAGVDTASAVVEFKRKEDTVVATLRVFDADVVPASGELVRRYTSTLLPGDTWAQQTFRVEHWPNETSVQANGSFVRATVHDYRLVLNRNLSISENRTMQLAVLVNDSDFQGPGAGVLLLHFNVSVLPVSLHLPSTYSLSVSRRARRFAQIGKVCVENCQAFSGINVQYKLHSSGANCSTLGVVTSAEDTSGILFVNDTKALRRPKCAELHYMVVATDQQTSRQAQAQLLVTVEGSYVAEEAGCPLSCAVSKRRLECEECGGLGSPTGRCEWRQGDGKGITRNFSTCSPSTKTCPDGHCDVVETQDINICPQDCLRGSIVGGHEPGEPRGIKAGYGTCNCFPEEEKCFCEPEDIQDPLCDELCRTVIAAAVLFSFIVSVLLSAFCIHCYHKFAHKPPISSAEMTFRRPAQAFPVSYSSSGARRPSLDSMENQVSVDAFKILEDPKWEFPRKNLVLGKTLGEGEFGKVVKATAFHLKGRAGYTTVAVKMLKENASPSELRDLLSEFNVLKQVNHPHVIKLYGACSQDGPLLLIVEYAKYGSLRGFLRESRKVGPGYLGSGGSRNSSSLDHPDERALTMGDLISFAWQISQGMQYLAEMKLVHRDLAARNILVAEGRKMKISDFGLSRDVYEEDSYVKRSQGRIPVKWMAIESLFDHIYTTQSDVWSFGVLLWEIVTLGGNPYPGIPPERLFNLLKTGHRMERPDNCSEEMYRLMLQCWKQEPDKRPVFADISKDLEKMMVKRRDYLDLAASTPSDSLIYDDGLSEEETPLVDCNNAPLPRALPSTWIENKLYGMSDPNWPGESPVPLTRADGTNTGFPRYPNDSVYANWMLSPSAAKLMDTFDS
Fibroblast growth factor receptor 3, sequence (P22607 whole entry): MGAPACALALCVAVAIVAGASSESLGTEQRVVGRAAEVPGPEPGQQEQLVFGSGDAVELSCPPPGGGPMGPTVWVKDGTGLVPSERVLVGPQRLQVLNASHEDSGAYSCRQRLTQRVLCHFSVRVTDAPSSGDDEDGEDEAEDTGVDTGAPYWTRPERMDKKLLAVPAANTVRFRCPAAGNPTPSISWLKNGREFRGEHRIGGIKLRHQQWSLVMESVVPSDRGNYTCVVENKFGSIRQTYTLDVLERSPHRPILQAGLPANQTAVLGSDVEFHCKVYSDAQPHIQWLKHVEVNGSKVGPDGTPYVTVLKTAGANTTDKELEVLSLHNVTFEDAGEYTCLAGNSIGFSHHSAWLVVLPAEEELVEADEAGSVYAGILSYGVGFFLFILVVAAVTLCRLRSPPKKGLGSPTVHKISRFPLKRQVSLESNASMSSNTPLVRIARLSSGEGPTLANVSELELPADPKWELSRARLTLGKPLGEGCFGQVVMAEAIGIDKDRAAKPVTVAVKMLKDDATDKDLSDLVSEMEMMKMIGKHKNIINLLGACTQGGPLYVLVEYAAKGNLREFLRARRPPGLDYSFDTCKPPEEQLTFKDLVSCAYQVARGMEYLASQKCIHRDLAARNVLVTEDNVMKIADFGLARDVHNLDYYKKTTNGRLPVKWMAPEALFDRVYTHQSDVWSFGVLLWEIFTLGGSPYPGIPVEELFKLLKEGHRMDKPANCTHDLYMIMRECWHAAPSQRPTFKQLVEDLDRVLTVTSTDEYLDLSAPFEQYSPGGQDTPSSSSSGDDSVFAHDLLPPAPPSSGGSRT

Cn1cc(-c2[nH]c3cc(NC(=O)[C@H](N)C4CCCCC4)cc4c3c2C=NNC4=O)cn1
IC50 [1]: 47 nM | IC50 [2]: 80 nM | AUC(0-inf) [3]: 2670 ng·h/mL | AUC(0-inf) [4]: 5720 ng·h/mL | half-life [5]: 2.9 h | EC50 [6]: 45 nM | inhibition [7]: Active | Activity [8]: 78.6% | viability at 0.18 µM [9]: 97% | viability at 0.36 µM [10]: 71% | viability at 0.18 µM [11]: 90% | IC50 [12]: 420 nM | PF50 [13]: 3.7 | PF50 [14]: 3 | PF50 [15]: 11.3 | PF50 [16]: 1.3 | PF50 [17]: 3.1 | PF50 [18]: 1.5 | PF50 [19]: 1.2 | PF50 [20]: 5.6 | PF50 [21]: 1.9 | Activity [22]: Active | inhibition in vivo at 30 mg/kg [23]: 64% | inhibition in vivo at 40 mg/kg [24]: 90% | inhibition in vivo at 20 mg/kg [25]: 76% | inhibition in vivo at 12 mg/kg [26]: 68% | inhibition in vivo at 4 mg/kg [27]: 58% | inhibition in vivo at 24 mg/kg [28]: 55% | inhibition in vivo at 30 mg/kg [29]: 41% | inhibition in vivo at 30 mg/kg [30]: 64% | T/C [31]: 8 | T/C [32]: 8.5 | LCK [33]: 0.75 | LCK [34]: 0.75 | Activity [35]: Non-Toxic | inhibition [36]: Active
